Results: patent US20170190671A1, “BIS(ARYL)CATECHOL DERIVATIVES AS HERBICIDES” (E I DU PONT DE NEMOURS AND COMPANY, priority 2014, published 2017)

Tests used:
Format in all cases: in vivo
[1] = test system: ragweed (common ragweed, Ambrosia elatior); test: Test A preemergence; conditions: Ambrosia artemisiifolia, pre-emergence, 240 h, 0 to 100 scale (0 no effect, 100 complete control), read-out: Ragweed plant response rating
Procedure, shortened: (§1)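 Greenhouse pot test, loam/sand soil. Formulation: non-phytotoxic solvent mix plus surfactant. Pre: directed spray onto soil after sowing. Post: plants at 1–2 leaf, 2–10 cm. Rated visually vs untreated controls at ~10 d, 0 (no effect) to 100 (complete control).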

[2] = test system: Italian ryegrass (Lolium multiflorum); test: Test A preemergence; conditions: Lolium multiflorum, pre-emergence, 240 h, 0 to 100 scale (0 no effect, 100 complete control), read-out: Ryegrass, Italian plant response rating
Procedure, shortened: as §1

[3] = test system: pigweed (Amaranthus retroflexus); test: Test A preemergence; conditions: Amaranthus retroflexus, pre-emergence, 240 h, 0 to 100 scale (0 no effect, 100 complete control), read-out: Pigweed plant response rating
Procedure, shortened: as §1

kochia (Kochia scoparia) [4] = test: Test A preemergence; conditions: Bassia scoparia, pre-emergence, 240 h, 0 to 100 scale (0 no effect, 100 complete control), read-out: Kochia plant response rating
Procedure, shortened: as §1

[5] = test system: barnyardgrass (Echinochloa crus-galli); test: Test A preemergence; conditions: Echinochloa crus-galli, pre-emergence, 240 h
Procedure, shortened: as §1

[6] = test system: giant foxtail (Setaria faberii); test: Test A preemergence; conditions: Setaria faberi, pre-emergence, 240 h, 0 to 100 scale (0 no effect, 100 complete control), read-out: Foxtail, Giant plant response rating
Procedure, shortened: as §1

[7] = test system: galium (catchweed bedstraw, Galium aparine); test: Test A postemergence; conditions: Galium, post-emergence, 240 h, 0 to 100 scale, read-out: Plant response rating, Galium
Procedure, shortened: as §1

[8] = test system: ragweed (common ragweed, Ambrosia elatior); test: Test A postemergence; conditions: Ambrosia artemisiifolia, post-emergence, 240 h, 0 to 100 scale, read-out: Plant response rating, Ragweed
Procedure, shortened: as §1

[9] = test system: Italian ryegrass (Lolium multiflorum); test: Test A postemergence; conditions: Lolium multiflorum, post-emergence, 240 h, 0 to 100 scale, read-out: Plant response rating, Ryegrass, Italian
Procedure, shortened: as §1

[10] = test system: wheat (Triticum aestivum); test: Test A postemergence; conditions: Triticum aestivum, post-emergence, 240 h, 0 to 100 scale, read-out: Plant response rating, Wheat
Procedure, shortened: as §1

[11] = test system: pigweed (Amaranthus retroflexus); test: Test A postemergence; conditions: Amaranthus retroflexus, post-emergence, 240 h, 0 to 100 scale, read-out: Plant response rating, Pigweed
Procedure, shortened: as §1

kochia (Kochia scoparia) [12] = test: Test A postemergence; conditions: Bassia scoparia, post-emergence, 240 h, 0 to 100 scale, read-out: Plant response rating, Kochia
Procedure, shortened: as §1

[13] = test system: blackgrass (Alopecurus myosuroides); test: Test A postemergence; conditions: Alopecurus myosuroides, post-emergence, 240 h, 0 to 100 scale, read-out: Plant response rating, Blackgrass
Procedure, shortened: as §1

corn (Zea mays) = test: Test A postemergence; conditions: Zea mays, post-emergence, 240 h, 0 to 100 scale
Procedure, shortened: as §1

[14] = test system: barnyardgrass (Echinochloa crus-galli); test: Test A postemergence; conditions: Echinochloa crus-galli, post-emergence, 240 h, 0 to 100 scale, read-out: Plant response rating, Barnyardgrass
Procedure, shortened: as §1

[15] = test system: giant foxtail (Setaria faberii); test: Test A postemergence; conditions: Setaria faberi, post-emergence, 240 h, 0 to 100 scale, read-out: Plant response rating, Foxtail, Giant
Procedure, shortened: as §1

[16] = test system: Italian ryegrass (Lolium multiflorum); test: Test C postemergence; conditions: Lolium multiflorum, post-emergence, 336 h, Postemergence, scale 0 to 100, read-out: Plant response rating, Ryegrass, Italian
Procedure, shortened: (§2)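 Visual ratings (0 none to 100 complete control) were made 13 to 15 days after treatment, relative to controls. Test chemicals, formulated in a non-phytotoxic solvent mixture with surfactant, were applied in the greenhouse preemergence to seeded loam-sand soil or postemergence to plants 2 to 18 cm tall.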

wild oat (Avena fatua) = test: Test C postemergence; conditions: Avena fatua, post-emergence, Postemergence, scale 0 to 100, read-out: Plant response rating, Oat, Wild
Procedure, shortened: as §2

rice (Oryza sativa) = test: Test B flooded paddy; conditions: Oryza sativa, 336 h; 250 g ai/ha, Flood, 13 to 15 days, scale 0 (no effect) to 100 (complete control); read-out: Plant response rating, Rice
Procedure, shortened: (§3)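 Greenhouse pots flooded to 3 cm above soil at time of treatment received compound via the water, which stayed at that level.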

[17] = test system: ducksalad (Heteranthera limosa); test: Test B flooded paddy; conditions: Heteranthera limosa, 336 h; 250 g ai/ha, Flood, 13 to 15 days, scale 0 (no effect) to 100 (complete control); read-out: Plant response rating, Ducksalad
Procedure, shortened: as §3

[18] = test system: sedge, umbrella (small-flower umbrella sedge, Cyperus difformis); test: Test B flooded paddy; conditions: Cyperus difformis, 336 h; 250 g ai/ha, Flood, 13 to 15 days, scale 0 (no effect) to 100 (complete control); read-out: Plant response rating, Sedge, Umbrella
Procedure, shortened: as §3

[19] = test system: barnyardgrass (Echinochloa crus-galli); test: Test B flooded paddy; conditions: Echinochloa crus-galli, 336 h; 250 g ai/ha, Flood, 13 to 15 days, scale 0 (no effect) to 100 (complete control); read-out: Plant response rating, Barnyardgrass
Procedure, shortened: as §3

N#Cc1cccc(Oc2ncc(Cl)cn2)c1Oc1cnc(Cl)cn1 [Compound 32, 2-[(5-chloro-2-pyrazinyl)oxy]-3-[(5-chloro-2-pyrimidinyl)oxy]benzonitrile]
pest or weed control at 31 g/ha ([1]; 31 g ai/ha): 0% | pest or weed control at 125 g/ha ([1]; 125 g ai/ha): 30% | pest or weed control at 31 g/ha ([2]; 31 g ai/ha): 10% | pest or weed control at 125 g/ha ([2]; 125 g ai/ha): 60% | pest or weed control at 31 g/ha ([3]; 31 g ai/ha): 100% | pest or weed control at 125 g/ha ([3]; 125 g ai/ha): 100% | pest or weed control at 31 g/ha (kochia (Kochia scoparia) [4]; 31 g ai/ha): 100% | pest or weed control at 125 g/ha (kochia (Kochia scoparia) [4]; 125 g ai/ha): 100% | pest or weed control at 31 g/ha ([5]; 31 g ai/ha, 0 to 100 scale (0 no effect, 100 complete control), read-out: Barnyardgrass plant response rating): 30% | pest or weed control at 125 g/ha ([5]; 125 g ai/ha, 0 to 100 scale, read-out: Plant response rating, Barnyardgrass): 90% | pest or weed control at 31 g/ha ([6]; 31 g ai/ha): 100% | pest or weed control at 125 g/ha ([6]; 125 g ai/ha): 100% | pest or weed control at 31 g/ha ([7]; 31 g ai/ha): 90% | pest or weed control at 125 g/ha ([7]; 125 g ai/ha): 90% | pest or weed control at 31 g/ha ([8]; 31 g ai/ha): 10% | pest or weed control at 125 g/ha ([8]; 125 g ai/ha): 30% | pest or weed control at 31 g/ha ([9]; 31 g ai/ha): 10% | pest or weed control at 125 g/ha ([9]; 125 g ai/ha): 50% | plant injury at 31 g/ha ([10]; 31 g ai/ha): 0% | plant injury at 125 g/ha ([10]; 125 g ai/ha): 30% | pest or weed control at 31 g/ha ([11]; 31 g ai/ha): 100% | pest or weed control at 125 g/ha ([11]; 125 g ai/ha): 100% | pest or weed control at 31 g/ha (kochia (Kochia scoparia) [12]; 31 g ai/ha): 90% | pest or weed control at 125 g/ha (kochia (Kochia scoparia) [12]; 125 g ai/ha): 90% | pest or weed control at 31 g/ha ([13]; 31 g ai/ha): 60% | pest or weed control at 125 g/ha ([13]; 125 g ai/ha): 70% | Corn plant response rating (crop injury, 0 = no effect, 100 = complete kill) at 31 g/ha (corn (Zea mays); 31 g ai/ha): 30% | Corn plant response rating (crop injury, 0 = no effect, 100 = complete kill) at 125 g/ha (corn (Zea mays); 125 g ai/ha): 50% | pest or weed control at 31 g/ha ([14]; 31 g ai/ha): 40% | pest or weed control at 125 g/ha ([14]; 125 g ai/ha): 100% | pest or weed control at 31 g/ha ([15]; 31 g ai/ha): 50% | pest or weed control at 125 g/ha ([15]; 125 g ai/ha): 90% | pest or weed control at 31 g/ha ([16]; 31 g ai/ha): 5% | pest or weed control at 62 g/ha ([16]; 62 g ai/ha): 10% | pest or weed control at 125 g/ha ([16]; 125 g ai/ha): 30% | pest or weed control at 31 g/ha (wild oat (Avena fatua); 31 g ai/ha): 30% | pest or weed control at 62 g/ha (wild oat (Avena fatua); 62 g ai/ha): 30% | pest or weed control at 125 g/ha (wild oat (Avena fatua); 125 g ai/ha): 30% | plant injury at 250 g/ha (rice (Oryza sativa)): 40% | pest or weed control at 250 g/ha [17]: 75% | pest or weed control at 250 g/ha [18]: 90% | pest or weed control at 250 g/ha [19]: 70%
